Molecular target: T1, Hsp90αN (N-terminal domain of human Hsp90α) (Homo sapiens, UniProt P07900)
T1 construct: gene HSP90AA1; N-terminal domain, amino acids 3–241, N-terminal His6 tag
Test: ITC; weak ligand displaced by radicicol (association constant Kb given)
Type: binding

Kd: 50 µM
SMILES: COCCOC(=O)c1ccc(O)cc1O [compound 1]

Source: paper PMC2705510, “Measurement of Nanomolar Dissociation Constants by Titration Calorimetry and Thermal Shift Assay – Radicicol Binding to Hsp90 and Ethoxzolamide Binding to CAII” (2009)
